Reference: EP4799620A1, “ORAL PHARMACEUTICAL FORM FOR BIPHASIC RELEASE, COMPOSED OF A MULTIP[…], PROCESS FOR PREPARING SAME AND […] USE OF ORAL FORM” (Prati, Donaduzzi & Cia LTDA, priority 2023, dated 2025)
Like-named read-outs stand apart in the source and are kept apart here.

Legend:
[1] = tested on: patients with secondary insomnia; assay: Randomized, controlled, cross-over clinical trial: questionnaires and subjective sleep perception; format: in vivo; settings: for Sleep latency / Total sleep time: subjective
Description: (§1) Based on the foregoing, a double-blind clinical trial was conducted to evaluate the impact of the medication on sleep quality and total sleep time, as well as to quantify the reduction in sleep latency in patients diagnosed with comorbid insomnia, through actigraphy and assessment scales.
(§2) The objective of the clinical trial was to evaluate the impact of the medication on sleep quality and total sleep time, as well as to quantify the reduction in sleep latency in patients diagnosed with comorbid insomnia, through actigraphy and assessment scales. The study was conducted with 30 patients.
TABLE 1: RESULTS OF THE ANALYSIS OF THE QUESTIONNAIRES AND OF THE SUBJECTIVE SLEEP PERCEPTION.

[2] = tested on: patients with secondary insomnia; assay: Randomized, controlled, cross-over clinical trial: actigraphy analysis; format: in vivo
Description: as §1, §2
Of the 29 patients, 24 correctly completed the proposed actigraphy usage period. TABLE 2: ACTIGRAPHY ANALYSIS RESULTS.

[3] = in water; cited from earlier work
[4] = cited from earlier work
pregnant women = settings: 50 mg/day; 67 pregnant women; third trimester of pregnancy; cited from earlier work
[5] = tested on: patients with Alzheimer's disease; settings: 50 mg/day; cited from earlier work
[6] = 50 mg/day; double-blind controlled study; cited from earlier work
postmenopausal women = settings: trazodone 50-100 mg/day; cited from earlier work
healthy volunteers = settings: daily doses of 50 and 100 mg; cited from earlier work

## O=c1n(CCCN2CCN(c3cccc(Cl)c3)CC2)nc2ccccn12 [Trazodone]
[1]; 50 mg, Consultation 1
  Hamilton Depression Scale: 16.31±8.60@#
  Insomnia Severity Scale: 19.88±4.04@#
  Nights with awakenings/week: 3.00±0.00@
  Pittsburgh Sleep Quality Questionnaire: 14.13±3.11@#
[1]; 50 mg, Consultation 2
  Hamilton Depression Scale: 11.88±6.06@
  Insomnia Severity Scale: 17.69±6.18&*
  Nights with awakenings/week: 2.40±1.05
  Pittsburgh Sleep Quality Questionnaire: 11.19±2.90
[1]; 50 mg, Consultation 3
  Hamilton Depression Scale: 11.13±6.98
  Insomnia Severity Scale: 11.14±7.24#&
  Nights with awakenings/week: 2.00±1.17
[1]; 50 mg, Consultation 4
  Hamilton Depression Scale: 7,875±4.28
  Insomnia Severity Scale: 7.50±4.48@#
  Nights with awakenings/week: 1.06±1.39@#
  Pittsburgh Sleep Quality Questionnaire: 9.81±3.50@
[1]; 75 mg, Consultation 1
  Hamilton Depression Scale: 18.31±11.41@
  Insomnia Severity Scale: 21.08±3.84@
  Nights with awakenings/week: 2.84±0.55
  Pittsburgh Sleep Quality Questionnaire: 13.54±3.43@
[1]; 75 mg, Consultation 2
  Hamilton Depression Scale: 14.85±6.65
  Insomnia Severity Scale: 19.75±3.84
  Nights with awakenings/week: 3.00±0.00
  Pittsburgh Sleep Quality Questionnaire: 12.77±2.20
[1]; 75 mg, Consultation 3
  Hamilton Depression Scale: 12.5±6.81
  Insomnia Severity Scale: 16.69±8.34
  Nights with awakenings/week: 2.58±0.90
  Pittsburgh Sleep Quality Questionnaire: 13.58±3.08
[1]; 75 mg, Consultation 4
  Hamilton Depression Scale: 8.08±3.57@#
  Insomnia Severity Scale: 7,33±5,61@#
  Nights with awakenings/week: 1.38±1.55
  Pittsburgh Sleep Quality Questionnaire: 9.91±3.26@#
[1]; no dose stated, Consultation 1
  Hamilton Depression Scale: 17,21±9,82@#
  Insomnia Severity Scale: 20.41±3.93@#
  Nights with awakenings/week: 2.93±0.37@
  Pittsburgh Sleep Quality Questionnaire: 13.86±3.21@
  Sleep latency: 69,59±74,51@ min.
  Total sleep time: 277.20±109.20@ min.
[1]; no dose stated, Consultation 2
  Hamilton Depression Scale: 13.21±6.40&*
  Insomnia Severity Scale: 18.57±5.32&*
  Nights with awakenings/week: 2.67±0.82
  Pittsburgh Sleep Quality Questionnaire: 11.9±2.69
  Sleep latency: 51.76 ± 36.18 min
  Total sleep time: 291.70 ± 81.33 min
[1]; no dose stated, Consultation 3
  Hamilton Depression Scale: 11,74±6,80#&
  Insomnia Severity Scale: 13.81±8.14#&
  Nights with awakenings/week: 2.26±1.08
  Pittsburgh Sleep Quality Questionnaire: 12.59±3.68
  Sleep latency: 51.76 ± 50.13 min
  Total sleep time: 322.80 ± 94.07 min
[1]; no dose stated, Consultation 4
  Hamilton Depression Scale: 7.96±3.93@*
  Insomnia Severity Scale: 7.42±4.90@#
  Nights with awakenings/week: 1.20±1.45@#
  Pittsburgh Sleep Quality Questionnaire: 9.85±3.34@#
  Sleep latency: 29,69±25,24@# min.
  Total sleep time: 341.80±110.00@ min.
[1]; 50mg, Consultation 1
  Sleep latency: 50.5 ± 40.46 min
  Total sleep time: 273.80 ± 95.42 min
[1]; 50mg, Consultation 2
  Sleep latency: 37.19 ± 20.00 min
  Total sleep time: 307.50 ± 75.50 min
[1]; 50mg, Consultation 3
  Sleep latency: 42,56±47,20 min.
  Total sleep time: 348.80 ± 103.30 min
[1]; 50mg, Consultation 4
  Sleep latency: 26.31 ± 25.20 min
[1]; 75mg, Consultation 1
  Sleep latency: 93.08 ± 99.11 min
  Total sleep time: 281.50 ± 128.20 min
[1]; 75mg, Consultation 2
  Sleep latency: 69.69 ± 43.86 min
  Total sleep time: 272.30 ± 87.00 min
[1]; 75mg, Consultation 3
  Sleep latency: 63.08 ± 53.17 min
  Total sleep time: 290.80 ± 72.85 min
[1]; 75mg, Consultation 4
  Sleep latency: 33.85 ± 25.67 min
  Total sleep time: 378.50 ± 89.61 min
[2]; 50mg, Actigraphy 1
  Awakenings: 12.97±3.85@
  Sleep latency: 6.13 ± 5.56 min
  Total sleep time: 50mg 461.80±106.60 min.
  WASO: 84.20 ± 26.09 min
[2]; 50mg, Actigraphy 2
  Awakenings: 10.68±3.44
  Sleep latency: 7.16 ± 7.48 min
  Total sleep time: 479.90 ± 95.25 min
  WASO: 75.38 ± 29.34 min
[2]; 50mg, Actigraphy 3
  Awakenings: 11.35±3.59@
  Sleep latency: 4.40 ± 4.40 min
  Total sleep time: 476.00 ± 91.94 min
  WASO: 73 ± 26.45 min
[2]; 75mg, Actigraphy 1
  Awakenings: 12.64±2.57
  Sleep latency: 6.77 ± 5.96 min
  Total sleep time: 75 mg 486.00±151.70 min.
  WASO: 82.33 ± 20.21 min
[2]; 75mg, Actigraphy 2
  Awakenings: 11.37±1.56
  Sleep latency: 5.28 ± 4.71 min
  Total sleep time: 514.10 ± 166.50 min
  WASO: 88.29 ± 20.62 min
[2]; 75mg, Actigraphy 3
  Awakenings: 11.71±2.54£2
  Sleep latency: 7.33 ± 7.90 min
  Total sleep time: 498.60 ± 126.30 min
  WASO: 83.44 ± 32.30 min
[2]; no dose stated, Actigraphy 1
  Awakenings: 12.84±3.37@
  Sleep latency: 6.37 ± 5.60 min
  Total sleep time: 470.90 ± 122.70 min
  WASO: 84.20 ± 26.09 min
[2]; no dose stated, Actigraphy 2
  Awakenings: 10.92±2.89
  Sleep latency: 6.47 ± 6.51 min
  Total sleep time: 491.90 ± 121.50 min
[2]; no dose stated, Actigraphy 3
  Awakenings: 11.49±3.186@#
  Sleep latency: 5.50 ± 5.97 min
  Total sleep time: 484.50 ± 104.00 min
  WASO: 73.00 ± 26.45 min
[3]
  pKa: 6.74
[4]; above its pKa, neutral and basic conditions
  solubility: very low
[4]; acidic medium, pH of the medium below its pKa
  solubility: highly soluble
Pregnant women
  Sedative effects for the treatment of insomnia: efficacy
[5]
  treatment of insomnia: safe and effective
[6]
  maintaining sleep: effective
Postmenopausal women
  sleep quality and sexual dysfunction: improved
Healthy volunteers
  slow waves during sleep: increased

## CN1CCN(C(=O)OC2c3nccnc3C(=O)N2c2ccc(Cl)cn2)CC1 (stereo not drawn) [zopiclone]
Postmenopausal women
  sleep quality and sexual dysfunction: improved
